Data on 7 compounds can be found in patent US9701672B2, “Dihydropyridinone MGAT2 inhibitors for use in the treatment of metabolic disorders” (BRISTOL-MYERS SQUIBB COMPANY, priority 2014, dated 2017).

Chain of human MGAT-2 (Q3SYC2 whole entry): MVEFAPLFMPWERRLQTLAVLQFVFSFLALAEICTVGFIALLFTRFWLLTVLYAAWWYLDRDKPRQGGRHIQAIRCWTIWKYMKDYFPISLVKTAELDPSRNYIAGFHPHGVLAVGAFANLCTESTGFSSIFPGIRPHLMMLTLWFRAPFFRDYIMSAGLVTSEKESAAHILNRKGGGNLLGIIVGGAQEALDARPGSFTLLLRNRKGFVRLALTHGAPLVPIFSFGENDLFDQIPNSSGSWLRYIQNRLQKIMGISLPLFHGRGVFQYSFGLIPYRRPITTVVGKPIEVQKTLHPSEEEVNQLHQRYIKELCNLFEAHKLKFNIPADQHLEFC

This experiment has as its target human MGAT-2 (Homo sapiens (Human), UniProt Q3SYC2). The experiment is described as follows: MGAT LCMS assay (h-MGAT LCMS). The format is biochemical. Conditions: human MGAT2 membranes expressed in Sf9 cells; 100 μM 2-oleoylglycerol, 15 μM oleoyl-coenzyme A. How it is done: The MGAT enzyme reactions were performed in Corning FALCON® 96-well polypropylene plates, in a total volume of 60 μL of 50 mM potassium phosphate buffer pH 7.4, containing a final concentration of 100 μM 2-oleoylglycerol, 15 μM oleoyl-coenzyme A and 0.0013 μg/μL human or mouse MGAT-2 or 0.0026 μg/μL rat recombinant MGAT-2 membranes expressed in Sf9 cells. Assay plates were run through a fully automated robotics system and shaken for 5 seconds every minute for a total 10 minutes. The reactions were then quenched with 120 μL of ice cold methanol containing 1 μg/mL 1,2-distearoyl-rac-glycerol as the internal standard. Plates were shaken for 2 minutes and spun down to remove protein precipitation. After the spin, samples were transferred to LC/MS compatible PCR plates. For LC/MS analysis, a ThermoFisher Surveyor pump, utilizing a Waters […]® C8, 50×2.1 mm column, was used for the chromatography of enzyme products. The buffer system consists of 0.1% formic acid in water with a mobile phase consisting 0.1% formic acid in methanol. The shallow gradient is 90-100% mobile phase in 0.2 min with a total run time of 2.3 min. The first 0.5 minutes of each injection was diverted to waste to eliminate the presence of phosphate buffer in the enzymatic reaction. The column was run at 0.6 mL/min and a temperature of 65° C. Mass spectrometry analysis of the samples was performed on a ThermoFisher Quantum Triple quad utilizing APCI (+) as the mode of ionization. Data was acquired in Single Ion Monitoring (SIM) mode analyzing Diolein=m/z 603.6 (PRODUCT) and 1,2-distearoyl-rac-glycerol (IS)=m/z 607.6. The ratio of Diolein to internal standard (Peak Area Ratio) is utilized to calculate IC50 values.
“NT” denotes “Not tested”.
On to `COc1ccc(C2=C(C#N)C(=O)N[C@@](c3ccc(OCCCCC(F)(F)F)cc3)(C(F)(F)F)C2)cn1` [Example 70, (S)-6-Methoxy-2′-oxo-6′-(trifluoromethyl)-6′-(4-((5,5,5-trifluoropentyl)oxy)phenyl)-1′,2′,5′,6′-tetrahydro-[3,4′-bipyridine]-3′-carbonitrile], for which the concentration for half-maximal inhibition (IC50) (in general, the concentration that inhibits the measured activity by half) stood at 32.3 nM. This lies in the double-digit nanomolar range.

Regarding `Cc1ccc(C2=C(C#N)C(=O)N[C@@](c3ccc(OCCCCCC(F)(F)F)cc3)(C(F)(F)F)C2)s1` [Example 71, (S)-4-(5-Methylthiophen-2-yl)-2-oxo-6-(4-((6,6,6-trifluorohexyl)oxy)phenyl)-6-(trifluoromethyl)-1,2,5,6-tetrahydropyridine-3-carbonitrile], the IC50 was determined as 31.5 nM.

Consider `COc1ccc(C2=C(C#N)C(=O)N[C@@](c3ccc(OCCCCCC(F)(F)F)cc3)(C(F)(F)F)C2)cn1` [Example 72, (S)-6-Methoxy-2′-oxo-6′-(4-((6,6,6-trifluorohexyl)oxy)phenyl)-6′-(trifluoromethyl)-1′,2′,5′,6′-tetrahydro-[3,4′-bipyridine]-3′-carbonitrile], for which the IC50 came out at 10.3 nM. This IC50 is about 3.1-fold lower than that of the compound before.

In turn, `N#CC1=C(c2ccc(C3CC3)s2)C[C@](c2ccc(OCCCC(F)(F)F)cc2)(C(F)(F)F)NC1=O` [Example 74, (S)-4-(5-Cyclopropylthiophen-2-yl)-2-oxo-6-(4-(4,4,4-trifluorobutoxy)phenyl)-6-(trifluoromethyl)-1,2,5,6-tetrahydropyridine-3-carbonitrile] gave a half-maximal inhibitory concentration (IC50) of 15 nM.

`CCc1ccc(C2=C(NC(=O)CS(C)(=O)=O)C(=O)N[C@@](c3ccc(OCCCCCC(F)(F)F)cc3)(C(F)(F)F)C2)s1` [Example 75, (S)—N-(4-(5-Ethylthiophen-2-yl)-2-oxo-6-(4-((6,6,6-trifluorohexyl)oxy)phenyl)-6-(trifluoromethyl)-1,2,5,6-tetrahydropyridin-3-yl)-2-(methylsulfonyl)acetamide]: it took 1.5 nM to reach half-maximal inhibition (IC50).

Regarding `COc1ccc(NC(=O)C2=C(c3ccn(C4CC4)n3)C[C@](c3ccc(OCCCC(F)(F)F)cc3)(C(F)(F)F)NC2=O)cc1` [Example 76, (S)-4-(1-Cyclopropyl-1H-pyrazol-3-yl)-N-(4-methoxyphenyl)-2-oxo-6-(4-(4,4,4-trifluorobutoxy)phenyl)-6-(trifluoromethyl)-1,2,5,6-tetrahydropyridine-3-carboxamide], the half-maximal inhibitory concentration (IC50) was 4.2 nM. This IC50 is about 2.8-fold higher than that of the compound before.

In turn, `Cc1cnn(C2=C(C#N)C(=O)N[C@@](c3ccc(OCCCC(F)(F)F)cc3)(C(F)(F)F)C2)c1` [Example 77] returned an IC50 of 522 nM.
